Data published in paper PMC9138102, “The Role of ZIP9 and Androgen Receptor in the Establishment of Tight Junctions between Adult Rat Sertoli Cells” (Biology, 2022).

Experiments:
[1] = test system: androgen binding site ZIP9 of the Sertoli cell line 93RS2; parameters: method as in PMID 35053053, PMID 35053017; conditions: 93RS2 cells; cited from earlier work
[2] = test system: androgen binding site ZIP9 of L6 myoblasts; conditions: cited from earlier work
[3] = test system: androgen binding site of ZIP9; experiment: T-BSA-FITC plasma membrane labeling of PASC1 cells and its displacement; conditions: PASC1 cells, n = 28
Description: PASC1 cells were cultured as described above in 24-well plates at a density of 3 × 10^3 cells/well until reaching a confluence of approximately 80%. The cells were then treated with either 10 nM testosterone or 1 µM of P1 for 1 h. Controls received only the testosterone vehicle (ethanol). […] The medium was then removed by aspiration. In order to label nuclei, cells were fixed at room temperature with 3.7% formaldehyde that contained 20 ng of 4,6-diamino-2-phenylindole (DAPI). After 15 min, the formaldehyde/DAPI solution was removed by aspiration. Cells were washed with Dulbecco’s phosphate-buffered saline (DPBS, Gibco, Schwerte, Germany) and then overlayed with 400 µL PBS before imaging. Images were taken by an inverse Olympus IX81 microscope (Olympus, Hamburg, Germany).

ZIP9-specific mRNA = experiment: ZIP9 mRNA silencing in PASC1 cells, qRT-PCR; type: cell-based, rat; conditions: 48 h siRNA
Description: (§1) Primers were designed with http://www.ncbi.nlm.nih.gov/tools/primer-blast (Accessed on 28 February 2022) and were all intron-spanning. Total RNA was isolated from PASC1 with the RNeasy Mini-Kit (Qiagen, Hilden, Germany) and subjected to DNase I treatment as described by the manufacturer. The Reverse Transcription-System first strand cDNA synthesis kit (Invitrogen, Darmstadt, Germany) was used for cDNA synthesis, as recommended. Quantitative real-time PCR (qRT-PCR) amplification was performed in duplicate with iQ TM SYBR Green Super-mix (Bio-Rad; Munich; Germany) on the iCycler iQ System (Bio-Rad). After an initial heating at 94 °C for 5 min, 40 amplification cycles were performed consisting of an initial denaturation of the DNA double strands at 94 °C for 14 s, an annealing phase of the primers at 59 °C for 30 s, and extension of the primers for 15 s at 72 °C. A finalizing extension at 72 °C was carried out for 10 min. Gene expression was measured after reaching the ct value and calculated using the Delta–Delta Ct method. Detection of GAPDH-specific mRNA/cDNA served as normalization of the quantification. Oligonucleotides used in the qRT-PCR, their annealing position, and the expected size of the amplificates are listed in Supplementary Table S2. […]

ZIP9 protein = ZIP9 protein silencing in PASC1 cells, immunofluorescence; type: cell-based, rat; conditions: 48 h siRNA
AR-specific mRNA = experiment: AR mRNA silencing in PASC1 cells, qRT-PCR; type: cell-based, rat; conditions: 48 h siRNA
Description: as §1

AR protein = AR protein silencing in PASC1 cells, immunofluorescence; type: cell-based, rat; conditions: 48 h siRNA
Description: PASC1 cells were plated at a density of 3.0 × 10^4 on 24-well plates (1 mL/well) and incubated 48 h at 37 °C and 5% CO2 until a confluence of roughly 80% was reached. Cells were rinsed with DPBS and fixed with 100% ice-cold methanol (Roth, Karlsruhe, Germany) on ice for 10 min directly or after stimulation with vehicle, 10 nM testosterone, or 1 µM P1 for 24 h. Cells were then washed with DPBS three times for 5 min, and then incubated in blocking solution (PBS with 3% BSA and 0.3% Triton X-100, both from Sigma-Aldrich) for 1 h at room temperature. The blocking solution was replaced by fresh blocking solution containing the primary antibodies for detection of either AR, p-Erk1/2, p-CREB/p-ATF-1, claudin-1 (Cldn-1), or zonula occludens-1 (ZO-1) (Supplementary Table S1) and incubated overnight at 4 °C. […] After washing 3 times with DPBS, images were obtained using an inverse Olympus IX81 microscope equipped with a fluorescence system. A total of 30 cells from 3 independent experiments (30 × 3) localized closest to the diagonals of the square optical field were selected and the manually surrounded green fluorescence was quantified by ImageJ (available at http://rsbweb.nih.gov/ij/, last accessed 28 February 2022) following the protocol of the software provider. The data obtained were analyzed by GraphPad Prism5 (GraphPad Software, Inc., La Jolla, CA, USA). […]

testosterone 3-(O-carboxymethyl)-oxime:bovine serum albumin-fluorescein isothiocyanate conjugate [T-BSA-FITC]
Labeling of androgen binding site of ZIP9 [1]: suitable to label the androgen binding site ZIP9 of the Sertoli cell line 93RS2 | Labeling of androgen binding site of ZIP9 [2]: suitable to label the androgen binding site ZIP9 of the Sertoli cell line 93RS2 and also of L6 myoblasts | Membrane labeling ([3]; 10 µM T-BSA-FITC, pH 7.2, 20 min, room temperature, nc-siRNA treated, fluorescence): label the surface of PASC1 cells | Membrane labeling after ZIP9 knockdown ([3]; ZIP9 expression suppressed by siRNA, 10 µM T-BSA-FITC): suppression of its expression by siRNA prevented the binding of T-BSA-FITC

ZIP9-directed siRNA: 5′ GGAUUAAGUAAGAGCAGUAtt3′ and 5′ UACUGCUCUUACUUAAUCCta 3′ (ZIP9-siRNA for ZIP9 silencing) (chain 1 GGAUUAAGUAAGAGCAGUATT; chain 2 UACUGCUCUUACUUAAUCCTA; Commercial Silencer Select siRNA, lowercase 3' overhang letters not explained, further chemistry not given here)
Expression of ZIP9 mRNA (ZIP9-specific mRNA): similarly successful in preventing expression | Expression of ZIP9 protein (ZIP9 protein): similarly successful in preventing expression

BSA-FITC: BSA-FITC (lacking testosterone)
Membrane labeling by BSA-FITC (non-specific binding) ([3]; 10 µM BSA-FITC, pH 7.2, 20 min, room temperature): failed to label the membrane structure

AR-siRNA: 5′CCGGAAAUGUUAUGAAGCAtt3′ plus 5′ UGCUUCAUAACAUUUCCGGag 3′ (AR-siRNA for AR silencing) (chain 1 CCGGAAAUGUUAUGAAGCATT; chain 2 UGCUUCAUAACAUUUCCGGAG; Commercial Silencer Select siRNA, lowercase 3' overhang letters not explained, further chemistry not given here)
Expression of AR-specific mRNA (AR-specific mRNA): greatly suppressed | Expression of AR protein (AR protein): also prevented
